# Reference: patent US12398097B2, “WDR5-MYC inhibitors” (Vanderbilt University, priority 2019, dated 2025)
# Target: WDR5 (Homo sapiens, UniProt P61964)
# Test: Competition-based fluorescence polarization anisotropy assay
# Details: binding to WDR5; displacement of FITC-labeled small molecule probe (analogous to Example J2 or HCH-25) or peptide probe FITC-AHx-SEEEIDVVSV; pH 6.0; Ki converted from IC50
# Protocol: Compounds of the present invention were assessed for their ability to bind to WDr5 using a competition-based fluorescence polarization anisotropy assay, similar to the method previously described. […] Fluorescence polarization measurements were performed in 384-well plates (Greiner Bio One) using a Cytation 3 plate reader (BioTek). Fluorescein isothiocyanate (FITC)-labeled peptide probe ([…]) was purchased from GenScript USA Inc and used without further purification. […] The assay buffer contained 200 mM phosphate, 300 mM NaCl, and 0.5 mM TCEP and 0.1% Chaps at pH 6.0. […] This was converted into a binding dissociation constant (Ki value) according to the formula: […] Data shown in the table below represents a K; determined from this method for each Example, using either a fluorescently labeled small molecule probe analogous to Example J2 or Example HCH-25, or the peptide probe described above, in the assay.
row,Structure (SMILES),Ki [nM]
1,"COc1ccc(Br)cc1S(=O)(=O)Nc1cc(C2CC2)cc(C(=O)O)c1O [Example J69, 3-((5-Bromo-2-methoxyphenyl)sulfonamido)-5-cyclopropyl-2-hydroxybenzoic acid]",1940
2,"O=C(O)c1cc(C2CC2)cc(NS(=O)(=O)c2cc(Br)cc(Cl)c2O)c1O [Example J70, 3-((5-Bromo-3-chloro-2-hydroxyphenyl)sulfonamido)-5-cyclopropyl-2-hydroxybenzoic acid]",130
3,"COc1cc(Cl)c(Br)cc1S(=O)(=O)Nc1cc(C2CC2)cc(C(=O)O)c1O [Example J71, 3-((5-Bromo-4-chloro-2-methoxyphenyl)sulfonamido)-5-cyclopropyl-2-hydroxybenzoic acid]",2720
4,"COc1cc(F)c(Br)cc1S(=O)(=O)Nc1cc(C2CC2)cc(C(=O)O)c1O [Example J72, 3-((5-Bromo-4-fluoro-2-methoxyphenyl)sulfonamido)-5-cyclopropyl-2-hydroxybenzoic acid]",1110
5,"O=C(O)c1cc(C2CC2)cc(NS(=O)(=O)c2cc(Br)ccc2NC2CC2)c1O [Example J73, 3-((5-Bromo-2-(cyclopropylamino)phenyl)sulfonamido)-5-cyclopropyl-2-hydroxybenzoic acid]",5980
6,"CC(C)CNc1ccc(Br)cc1S(=O)(=O)Nc1cc(C2CC2)cc(C(=O)O)c1O [Example J74, 3-((5-Bromo-2-(isobutylamino)phenyl)sulfonamido)-5-cyclopropyl-2-hydroxybenzoic acid]",3930
7,"CC(C)[C@@H](C)Nc1ccc(Br)cc1S(=O)(=O)Nc1cc(C2CC2)cc(C(=O)O)c1O [Example J75, (R)-3-((5-Bromo-2-((3-methylbutan-2-yl)amino)phenyl)sulfonamido)-5-cyclopropyl-2-hydroxybenzoic acid]",5170
8,"CC(C)[C@H](C)Nc1ccc(Br)cc1S(=O)(=O)Nc1cc(C2CC2)cc(C(=O)O)c1O [Example J76, (S)-3-((5-Bromo-2-((3-methylbutan-2-yl)amino)phenyl)sulfonamido)-5-cyclopropyl-2-hydroxybenzoic acid]",3240
9,"C[C@@H](Nc1ccc(Br)cc1S(=O)(=O)Nc1cc(C2CC2)cc(C(=O)O)c1O)C1CC1 [Example J77, (R)-3-((5-Bromo-2-((1-cyclopropylethyl)amino)phenyl)sulfonamido)-5-cyclopropyl-2-hydroxybenzoic acid]",2870
10,"COC[C@H]1CCCN1c1ccc(Br)cc1S(=O)(=O)Nc1cc(C2CC2)cc(C(=O)O)c1O [Example J78, (R)-3-((5-Bromo-2-(2-(methoxymethyl)pyrrolidin-1-yl)phenyl)sulfonamido)-5-cyclopropyl-2-hydroxybenzoic acid]",3990
11,"O=C(O)c1cc(C2CC2)cc(NS(=O)(=O)c2cc(Br)ccc2NCC2CC2)c1O [Example J79, 3-((5-Bromo-2-((cyclopropylmethyl)amino)phenyl)sulfonamido)-5-cyclopropyl-2-hydroxybenzoic acid]",5270
12,"NC(=O)c1cc(C2CC2)cc(NS(=O)(=O)c2cc(Br)ccc2O)c1O [Example J80, 3-((5-Bromo-2-hydroxyphenyl)sulfonamido)-5-cyclopropyl-2-hydroxybenzamide]",1640
13,"CNC(=O)c1cc(C2CC2)cc(NS(=O)(=O)c2cc(Br)ccc2O)c1O [Example J81, 3-((5-Bromo-2-hydroxyphenyl)sulfonamido)-5-cyclopropyl-2-hydroxy-N-methylbenzamide]",750
14,"CN(CCO)C(=O)c1cc(C2CC2)cc(NS(=O)(=O)c2cc(Br)ccc2O)c1O [Example J82, 3-((5-Bromo-2-hydroxyphenyl)sulfonamido)-5-cyclopropyl-2-hydroxy-N-(2-hydroxyethyl)-N-methylbenzamide]",3760
15,"COCCN(C)C(=O)c1cc(C2CC2)cc(NS(=O)(=O)c2cc(Br)ccc2O)c1O [Example J83, 3-((5-Bromo-2-hydroxyphenyl)sulfonamido)-5-cyclopropyl-2-hydroxy-N-(2-methoxyethyl)-N-methylbenzamide]",6380
16,"O=C(NCCN1CCOCC1)c1cc(C2CC2)cc(NS(=O)(=O)c2cc(Br)ccc2O)c1O [Example J84, 3-((5-Bromo-2-hydroxyphenyl)sulfonamido)-5-cyclopropyl-2-hydroxy-N-(2-morpholinoethyl)benzamide]",1070
17,"O=C(c1cc(C2CC2)cc(NS(=O)(=O)c2cc(Br)ccc2O)c1O)N1CCOCC1 [Example J85, 5-Bromo-N-(5-cyclopropyl-2-hydroxy-3-(morpholine-4-carbonyl)phenyl)-2-hydroxybenzenesulfonamide]",1440
18,"COCCNC(=O)c1cc(C2CC2)cc(NS(=O)(=O)c2cc(Br)ccc2O)c1O [Example J86, 3-((5-Bromo-2-hydroxyphenyl)sulfonamido)-5-cyclopropyl-2-hydroxy-N-(2-methoxyethyl)benzamide]",560
19,"O=C(NCCO)c1cc(C2CC2)cc(NS(=O)(=O)c2cc(Br)ccc2O)c1O [Example J87, 3-((5-Bromo-2-hydroxyphenyl)sulfonamido)-5-cyclopropyl-2-hydroxy-N-(2-hydroxyethyl)benzamide]",590

row,Structure (SMILES),Ki [nM]
1,"COCCCNC(=O)c1cc(C2CC2)cc(NS(=O)(=O)c2cc(Br)ccc2O)c1O [Example J88, 3-((5-Bromo-2-hydroxyphenyl)sulfonamido)-5-cyclopropyl-2-hydroxy-N-(3-methoxypropyl)benzamide]",600
2,CN(C)CCNC(=O)c1cc(C2CC2)cc(NS(=O)(=O)c2cc(Br)ccc2O)c1O [Example J89],1310
3,"O=C(NC1CCOC1)c1cc(C2CC2)cc(NS(=O)(=O)c2cc(Br)ccc2O)c1O (stereo not shown) [Example J90, 3-((5-Bromo-2-hydroxyphenyl)sulfonamido)-5-cyclopropyl-2-hydroxy-N-(tetrahydrofuran-3-yl)benzamide]",740
4,"O=C(NCCCO)c1cc(C2CC2)cc(NS(=O)(=O)c2cc(Br)ccc2O)c1O [Example J91, 3-((5-Bromo-2-hydroxyphenyl)sulfonamido)-5-cyclopropyl-2-hydroxy-N-(3-hydroxypropyl)benzamide]",940
5,"CN1CCN(C(=O)c2cc(C3CC3)cc(NS(=O)(=O)c3cc(Br)ccc3O)c2O)CC1 [Example J92, 5-Bromo-N-(5-cyclopropyl-2-hydroxy-3-(4-methylpiperazine-1-carbonyl)phenyl)-2-hydroxybenzenesulfonamide]",4440
6,"O=C(NC1COC1)c1cc(C2CC2)cc(NS(=O)(=O)c2cc(Br)ccc2O)c1O [Example J93, 3-((5-Bromo-2-hydroxyphenyl)sulfonamido)-5-cyclopropyl-2-hydroxy-N-(oxetan-3-yl)benzamide]",540
7,"NC(=O)c1cc(C2CC2)cc(NS(=O)(=O)c2cc(Br)cc(Cl)c2O)c1O [Example J94, 3-((5-Bromo-3-chloro-2-hydroxyphenyl)sulfonamido)-5-cyclopropyl-2-hydroxybenzamide]",400
8,"CNC(=O)c1cc(C2CC2)cc(NS(=O)(=O)c2cc(Br)cc(Cl)c2O)c1O [Example J95, 3-((5-Bromo-3-chloro-2-hydroxyphenyl)sulfonamido)-5-cyclopropyl-2-hydroxy-N-methylbenzamide]",390
9,"COCCNC(=O)c1cc(C2CC2)cc(NS(=O)(=O)c2cc(Br)cc(Cl)c2O)c1O [Example J96, 3-((5-Bromo-3-chloro-2-hydroxyphenyl)sulfonamido)-5-cyclopropyl-2-hydroxy-N-(2-methoxyethyl)benzamide]",610
10,"O=C(N[C@H]1CCOC1)c1cc(C2CC2)cc(NS(=O)(=O)c2cc(Br)cc(Cl)c2O)c1O [Example J97, (S)-3-((5-Bromo-3-chloro-2-hydroxyphenyl)sulfonamido)-5-cyclopropyl-2-hydroxy-N-(tetrahydrofuran-3-yl)benzamide]",140
11,"CNC(=O)c1cc(C2CC2)cc(NS(=O)(=O)c2cc(Br)cc(F)c2O)c1O [Example J98, 3-((5-Bromo-3-fluoro-2-hydroxyphenyl)sulfonamido)-5-cyclopropyl-2-hydroxy-N-methylbenzamide]",2320
12,"COCCNC(=O)c1cc(C2CC2)cc(NS(=O)(=O)c2cc(Br)cc(F)c2O)c1O [Example J99, 3-((5-Bromo-3-fluoro-2-hydroxyphenyl)sulfonamido)-5-cyclopropyl-2-hydroxy-N-(2-methoxyethyl)benzamide]",3720
13,"NC(=O)c1cc(C2CC2)cc(NS(=O)(=O)c2cc(Br)cc([N+](=O)[O-])c2O)c1O [Example J104, 3-((5-Bromo-2-hydroxy-3-nitrophenyl)sulfonamido)-5-cyclopropyl-2-hydroxybenzamide]",610
14,"COc1cc(Cl)c(Br)cc1S(=O)(=O)Nc1cc(C2CC2)cc(C(N)=O)c1O [Example J105, 3-((5-Bromo-4-chloro-2-methoxyphenyl)sulfonamido)-5-cyclopropyl-2-hydroxybenzamide]",13000
15,"COc1cc(F)c(Br)cc1S(=O)(=O)Nc1cc(C2CC2)cc(C(N)=O)c1O [Example J106, 3-((5-Bromo-4-fluoro-2-methoxyphenyl)sulfonamido)-5-cyclopropyl-2-hydroxybenzamide]",1530
16,"O=C(O)c1cc(F)cc(NS(=O)(=O)c2cc(Br)ccc2O)c1O [Example J107, 3-((5-Bromo-2-hydroxyphenyl)sulfonamido)-5-fluoro-2-hydroxybenzoic acid]",1480
17,"NC(=O)c1cc(F)cc(NS(=O)(=O)c2cc(Br)ccc2O)c1O [Example J108, 3-((5-Bromo-2-hydroxyphenyl)sulfonamido)-5-fluoro-2-hydroxybenzamide]",2240
18,"CNC(=O)c1cc(F)cc(NS(=O)(=O)c2cc(Br)ccc2O)c1O [Example J109, 3-((5-Bromo-2-hydroxyphenyl)sulfonamido)-5-fluoro-2-hydroxy-N-methylbenzamide]",3470
